The NIST ThermoML archive (doi:10.1021/je600559q)

How the values were obtained:
[1] = refractive index (Na D-line) (dimensionless); conditions: 293.1 K; 101.33 kPa; Liquid; Standard Abbe refractometry
[2] = Liquid

CC1CCCCC1O (configuration not stated) [2-methylcyclohexanol]
Conditions	refractive index
[1]	1.46313

[2]
Conditions	vapor or sublimation pressure [kPa]
361.23 K	5.394
362.23 K	5.668
363.13 K	5.919
365.7 K	6.693
367.68 K	7.345
369.92 K	8.152
371.63 K	8.817
373.16 K	9.448
375.31 K	10.4
377.78 K	11.58
380.39 K	12.94
383.11 K	14.52
385.95 K	16.32
386.1 K	16.42
389.56 K	18.86
393.07 K	21.65
395.88 K	24.1
398.52 K	26.6
402.67 K	30.99
406.67 K	35.73
410.73 K	41.11
414 K	45.9
418.26 K	52.85
424.63 K	64.66
439.57 K	100.47

CC(=O)OC1CCCCC1C (configuration not stated) [2-methylcyclohexyl acetate]
Conditions	refractive index
[1]	1.43896

[2]
Conditions	vapor or sublimation pressure [kPa]
368.01 K	5.32
369.86 K	5.758
371.87 K	6.261
373.83 K	6.787
376.56 K	7.594
379.93 K	8.675
383.36 K	9.912
386.65 K	11.22
391.27 K	13.32
393.39 K	14.38
394.15 K	14.77
398.42 K	17.2
401.6 K	19.19
403.3 K	20.34
405.73 K	22.08
410.71 K	26.01
415.57 K	30.39
418.74 K	33.54
421.2 K	36.16
423.84 K	39.17
426.54 K	42.45
429.41 K	46.21
433.2 K	51.55
440.4 K	63.09
458 K	100.13
